# In patent US20060281778A1, “Compounds for inhibiting KSP Kinesin activity” (Schering Corporation, priority 2005, published 2006):
# Target: T1, KSP motor domain (Homo sapiens, UniProt P52732)
# T1 sequence (P52732 18-359 limits assumed): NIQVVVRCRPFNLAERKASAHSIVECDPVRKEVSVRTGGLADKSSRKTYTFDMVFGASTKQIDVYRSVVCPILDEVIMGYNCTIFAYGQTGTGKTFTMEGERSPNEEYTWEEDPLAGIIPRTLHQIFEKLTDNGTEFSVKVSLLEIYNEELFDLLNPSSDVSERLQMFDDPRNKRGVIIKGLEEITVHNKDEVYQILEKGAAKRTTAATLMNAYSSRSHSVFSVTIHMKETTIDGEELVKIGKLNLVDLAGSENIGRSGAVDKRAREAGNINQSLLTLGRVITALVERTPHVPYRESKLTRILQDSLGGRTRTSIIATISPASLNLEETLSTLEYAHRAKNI
# Assay: KSP endpoint assay (microtubule-stimulated ATPase, Biomol green, OD620)
# Assay type: biochemical
# Details: not given
# Method: Serial dilutions of the compounds were prepared in a low binding, 96-well microtiter plate (Costar #3600) using 40% DMSO (Fisher BP231). The diluted compounds were added to a 384-well microtiter plate (Fisher 12-565-506). […] Following a 10 minute incubation, ATP (Sigma A-3377) (final concentration of ATP: 100 μM) was added to start the reaction. The final reaction volume was 25 μL. Final test compound concentration ranged from 50 μM to 5 nM, and 10 μM to 0.128 nM. The reaction was incubated for 1 hour at room temperature. The reaction was stopped by the addition of 50 μL Biomol green reagent (Biomol AK111) per well, and was allowed to incubate for 20 minutes at room temperature. The 384-well microtiter plate was then transferred to an absorbance reader (Molecular Devices SpectraMax plus) and a single measurement was taken at 620 nm.
# For both endpoint and kinetic assays, the percent activity for each concentration is calculated using the following equation: Y=((X−background)/(positive control−background))*100
# Y is the % activity and X is the measured reading (OD620 or rate)
# For an IC50 determination, the % activity was fit by the following equation using a nonlinear curve-fitting program for sigmoidal dose-responses (variable slopes) (GraphPad Prizm). Y=Bottom+(Top−Bottom)/(1+10ˆ((Log EC50−X)*HillSlope))
# All IC50 values are obtained from the end point assay.
row,Compound,IC50
1,"C[Si](C)(C)c1ccc2nc3sc(C(N)=O)cc3cc2c1 [Compound 12, 6-(trimethylsilyl)thieno[2,3-b]quinoline-2-carboxamide]",38 nM

# Same assay, conditions: endpoint assay; 2.5-10 nM KSP motor domain, 55 μg/mL microtubules, 100 μM ATP, 1 hour at room temperature; read-out: IC50 (KSP inhibitory activity, endpoint assay)
row,Compound,IC50
1,"CC(C)(C)c1ccc2nc3sc(C#N)cc3cc2c1 [Compound 1, 6-tert-butyl-thieno[2,3-b]quinoline-2-carbonitrile]",160 nM
2,"CC(C)(C)c1ccc2nc3sc(C(N)=O)cc3cc2c1 [Compound 2, 6-tert-butyl-thieno[2,3-b]quinoline-2-carboxylic acid amide]",80 nM
3,"CC(C)(C)c1ccc2nc3sc(C(=O)O)cc3cc2c1 [Compound 3, 6-tert-butyl-thieno[2,3-b]quinoline-2-carboxylic acid]",> 10000 nM
4,"CC(C)(C)OC(=O)NCCNC(=O)c1cc2cc3cc(C(C)(C)C)ccc3nc2s1 [Compound 4, {2-[(6-tert-Butyl-thieno[2,3-b]quinoline-2-carbonyl)amino]ethyl}carbamic acid tert-butyl ester]",> 10000 nM
5,"CC(C)(C)c1ccc2nc3sc(C(=O)NCCN)cc3cc2c1 [Compound 5, 6-tert-butyl-thieno[2,3-b]quinoline-2-carboxylic acid (2-aminoethyl)amide]",70 nM
6,"CNCCNC(=O)c1cc2cc3cc(C(C)(C)C)ccc3nc2s1 [Compound 6, 6-tert-butyl-thieno[2,3-b]quinoline-2-carboxylic acid (2-methylaminoethyl)amide]",290 nM
7,"CN(C)CCNC(=O)c1cc2cc3cc(C(C)(C)C)ccc3nc2s1 [Compound 7, 6-tert-butyl-thieno[2,3-b]quinoline-2-carboxylic acid (2-dimethylaminoethyl)-amide]",> 10000 nM
8,"CC(C)(C)c1ccc2nc3sc(C(=O)NCCC#N)cc3cc2c1 [Compound 8, 6-tert-Butyl-thieno[2,3-b]quinoline-2-carboxylic acid (2-cyanoethyl)amide]",9000 nM
9,"CC(C)(C)c1ccc2nc3sc(C(=O)NCC#N)cc3cc2c1 [Compound 9, 6-tert-butyl-thieno[2,3-b]quinoline-2-carboxylic acid cyanomethylamide]",600 nM
10,"COc1ccc(CN2CC(NC(=O)c3cc4cc5cc(C(C)(C)C)ccc5nc4s3)C2=O)c(OC)c1 (centres unmarked) [Compound 10, 6-tert-butyl-thieno[2,3-b]quinoline-2-carboxylic acid [1-(2,4-dimethoxybenzyl)-2-oxo-azetidin-3-yl]amide]",> 10000 nM
11,"CC(C)(C)c1ccc2nc3sc(C(=O)NC4CNC4=O)cc3cc2c1 (centres unmarked) [Compound 11, 6-tert-butyl-thieno[2,3-b]quinoline-2-carboxylic acid (2-oxo-azetidin-3-yl)amide]",8400 nM
12,"CC(C)(C)c1ccc2nc3sc(C(=O)N[C@H](CN)c4ccccc4)cc3cc2c1 [Compound 13, 6-tert-butyl-thieno[2,3-b]quinoline-2-carboxylic acid (2-amino-1-(S)-phenyl-ethyl)-amide]",35 nM
13,"CC(C)(C)c1ccc2nc3sc(C(=O)N[C@H](CN)c4cccc(N)c4)cc3cc2c1 [Compound 14, 6-tert-butyl-thieno[2,3-b]quinoline-2-carboxylic acid [2(S)-amino-1-(3-amino-phenyl)-ethyl]-amide]",25 nM
14,"CC(C)(C)c1ccc2nc3sc(C(=O)N[C@H](CN)c4cccc(NC(=O)c5cnccn5)c4)cc3cc2c1 [Compound 15, 6-tert-butyl-thieno[2,3-b]quinoline-2-carboxylic acid (2-amino-1(S)-{3-[(pyrazine-2-carbonyl)-amino]-phenyl}-ethyl)-amide]",30 nM
15,CC(C)(C)c1ccc2nc3sc(C(=O)N[C@H](CN)c4cccc(NC(=O)c5nccnc5N)c4)cc3cc2c1 [Compound 16],26 nM
16,"Cc1cc(C(=O)Nc2cccc([C@@H](CN)NC(=O)c3cc4cc5cc(C(C)(C)C)ccc5nc4s3)c2)no1 [Compound 17, 6-tert-butyl-thieno[2,3-b]quinoline-2-carboxylic acid (2-amino-1(S)-{3-[(5-methyl-isoxazole-3-carbonyl)-amino]-phenyl}-ethyl)-amide]",36 nM
